Experimental findings from paper PMC8807399, “Synthesis, Characterization, and in vivo Evaluation of a Novel Potent Autotaxin-Inhibitor” (Frontiers in Pharmacology, 2022) are described below.

Data set [1] in a line: Single dose PK in rats. The format is in vivo. To be noted: rat. On the procedure:
Exposures in animals treated with ATX-inhibitors were determined from K2EDTA treated plasma by LC-MS/MS at different time points. 25 µL of plasma was used for a single concentration determination. Concentration/time profiles were analyzed with MS Excel (Microsoft Corporation, Redmond, WA, United States).
For PK experiments for 7, 13, 14, and 15, respectively, animals were treated either iv or po and exposures were determined at different time points after compound administration. Suitable formulations for 13 were, for example, NMP:Tris buffer pH 8.5 (30%/70%) for iv administration with a nominal drug concentration of 1 mg/ml (dose 2 mg/kg) and a suspension in NMP:gelatine/NaCl (10%/90%) for po administration with a nominal drug concentration of 2.5 mg/ml (dose 10 mg/kg). PK parameters in Table 2 were estimated from the concentration time profiles using Phoenix WinNonlin software (Certara, Princeton, NJ, United States).

For data set [2], the target named is T1, Acetylcholinesterase (Homo sapiens, UniProt P22303).
T1 construct: purchased Eurofins CEREP SA
Put plainly: Off-target screen Acetylcholinesterase. To be noted: 10 µM; single point, duplicates. It is filed as biochemical.

In data set [3] the target is T2, Adenosine A1 respetor (Homo sapiens, UniProt P30542).
T2 construct: purchased Eurofins CEREP SA
Put plainly: Off-target screen Adenosine A1. To be noted: 10 µM; single point, duplicates. It is filed as binding.

Data set [4] has as its target T3, ECE-1 (Homo sapiens, UniProt P42892).
T3 construct: purchased Eurofins CEREP SA
The data set can be described thus: Off-target screen ECE-1. The format is biochemical. To be noted: 10 µM; single point, duplicates.

Data set [5] has as its target Glycine receptor (strychnine insensitive) (Rattus norvegicus, UniProt P35439). Put plainly: Off-target screen Glycine receptor (strychnine insensitive). To be noted: 10 µM; single point, duplicates. The format is binding.
Data set [6] deals with T4, HDAC3 (Homo sapiens, UniProt O15379).
T4 construct: purchased Eurofins CEREP SA
Put plainly: Off-target screen HDAC3. The format is biochemical. To be noted: 10 µM; single point, duplicates.

For data set [7], the target named is T5, PPARγ (Homo sapiens, UniProt P37231).
T5 construct: purchased Eurofins CEREP SA
The data set can be described thus: Off-target screen PPARγ, agonist mode. It is filed as cell-based. To be noted: 10 µM, single point, duplicates.

In data set [8] the target is T6, Serotonin transporter (Homo sapiens, UniProt P31645).
T6 construct: purchased Eurofins CEREP SA
The data set can be described thus: Off-target screen Serotonin transporter. To be noted: 10 µM; single point, duplicates. It is filed as binding.

For data set [9], the target named is T7, Alpha1A-adrenoreceptor (Homo sapiens, UniProt P35348).
T7 construct: purchased Eurofins CEREP SA
The data set can be described thus: Off-target screen Alpha1A-adrenoreceptor. It is filed as binding. To be noted: 10 µM; single point, duplicates.

Data set [10] deals with T8, Beta1-adrenoreceptor (Homo sapiens, UniProt P08588).
T8 construct: purchased Eurofins CEREP SA
The data set can be described thus: Off-target screen Beta1-adrenoreceptor. It is filed as binding. To be noted: 10 µM; single point, duplicates.

The test system of data set [11] is Nicotinic receptor (muscle). Put plainly: Off-target screen Nicotinic receptor (muscle). To be noted: 10 µM; single point, duplicates.
Where [12] appears, read: plasma, po, 20 mg/kg/day, food admix (FA), 20 mg/kg per day.

Each structure is given as a SMILES string.

T6 sequence (P31645 whole entry): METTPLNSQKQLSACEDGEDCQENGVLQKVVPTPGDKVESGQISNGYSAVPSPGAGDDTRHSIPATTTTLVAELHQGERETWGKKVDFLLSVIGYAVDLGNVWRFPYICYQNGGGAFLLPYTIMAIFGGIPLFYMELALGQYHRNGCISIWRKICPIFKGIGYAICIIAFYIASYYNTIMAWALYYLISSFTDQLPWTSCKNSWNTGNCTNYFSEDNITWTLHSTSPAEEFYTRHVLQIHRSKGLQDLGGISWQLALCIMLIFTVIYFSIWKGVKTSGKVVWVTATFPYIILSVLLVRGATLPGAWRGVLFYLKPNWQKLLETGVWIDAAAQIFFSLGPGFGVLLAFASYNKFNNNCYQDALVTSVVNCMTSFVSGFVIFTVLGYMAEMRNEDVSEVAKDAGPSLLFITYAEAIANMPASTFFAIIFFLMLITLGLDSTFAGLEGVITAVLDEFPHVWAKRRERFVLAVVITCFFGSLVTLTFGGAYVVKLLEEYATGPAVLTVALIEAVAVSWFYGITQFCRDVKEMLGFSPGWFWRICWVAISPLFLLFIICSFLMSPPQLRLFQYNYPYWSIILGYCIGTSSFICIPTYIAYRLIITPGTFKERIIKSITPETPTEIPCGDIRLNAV
T7 sequence (P35348 whole entry): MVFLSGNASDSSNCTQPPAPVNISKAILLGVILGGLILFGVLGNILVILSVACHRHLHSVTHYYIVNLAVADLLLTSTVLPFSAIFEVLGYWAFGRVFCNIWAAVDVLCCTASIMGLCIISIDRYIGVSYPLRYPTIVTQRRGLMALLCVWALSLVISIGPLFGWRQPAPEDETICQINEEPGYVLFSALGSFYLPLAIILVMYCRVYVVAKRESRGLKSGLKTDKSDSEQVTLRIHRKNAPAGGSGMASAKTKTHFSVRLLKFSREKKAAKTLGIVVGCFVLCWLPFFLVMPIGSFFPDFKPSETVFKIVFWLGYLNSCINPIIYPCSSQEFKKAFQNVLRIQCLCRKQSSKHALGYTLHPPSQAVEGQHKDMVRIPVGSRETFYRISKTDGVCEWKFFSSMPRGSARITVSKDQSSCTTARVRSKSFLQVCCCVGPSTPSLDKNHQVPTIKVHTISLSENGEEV
T1 sequence (P22303 32-614): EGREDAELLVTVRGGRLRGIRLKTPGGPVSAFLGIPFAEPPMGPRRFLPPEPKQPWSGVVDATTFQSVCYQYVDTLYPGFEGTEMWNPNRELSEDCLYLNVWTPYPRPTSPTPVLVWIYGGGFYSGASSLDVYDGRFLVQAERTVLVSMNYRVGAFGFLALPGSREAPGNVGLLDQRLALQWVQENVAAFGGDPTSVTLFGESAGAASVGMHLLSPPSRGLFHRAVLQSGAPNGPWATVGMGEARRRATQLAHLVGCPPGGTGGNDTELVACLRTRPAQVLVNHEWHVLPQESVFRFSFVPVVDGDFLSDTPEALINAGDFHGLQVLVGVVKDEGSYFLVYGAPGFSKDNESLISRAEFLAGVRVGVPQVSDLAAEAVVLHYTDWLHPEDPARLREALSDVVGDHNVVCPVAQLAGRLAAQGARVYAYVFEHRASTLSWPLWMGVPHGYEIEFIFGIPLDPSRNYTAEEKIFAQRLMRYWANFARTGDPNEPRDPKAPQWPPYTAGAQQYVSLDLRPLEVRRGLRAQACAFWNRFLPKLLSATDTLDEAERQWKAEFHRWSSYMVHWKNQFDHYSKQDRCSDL
T4 sequence (O15379 whole entry): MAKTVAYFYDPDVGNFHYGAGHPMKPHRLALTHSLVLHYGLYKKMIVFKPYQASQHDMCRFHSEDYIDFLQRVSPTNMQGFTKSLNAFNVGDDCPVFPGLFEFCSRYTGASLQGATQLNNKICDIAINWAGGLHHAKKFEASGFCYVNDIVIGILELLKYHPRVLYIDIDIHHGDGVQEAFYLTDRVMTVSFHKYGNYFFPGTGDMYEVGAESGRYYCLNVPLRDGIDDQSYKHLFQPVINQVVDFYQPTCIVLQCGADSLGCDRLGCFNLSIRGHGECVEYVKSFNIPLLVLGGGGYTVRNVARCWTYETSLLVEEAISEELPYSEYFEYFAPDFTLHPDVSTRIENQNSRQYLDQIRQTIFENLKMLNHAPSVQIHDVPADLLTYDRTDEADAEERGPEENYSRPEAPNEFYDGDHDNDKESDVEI
T4 sequence (Q9Y618 395-489 partner limits assumed): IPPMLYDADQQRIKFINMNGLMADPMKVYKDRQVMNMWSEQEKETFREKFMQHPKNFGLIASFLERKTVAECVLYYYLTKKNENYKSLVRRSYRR
T3 sequence (P42892 whole entry): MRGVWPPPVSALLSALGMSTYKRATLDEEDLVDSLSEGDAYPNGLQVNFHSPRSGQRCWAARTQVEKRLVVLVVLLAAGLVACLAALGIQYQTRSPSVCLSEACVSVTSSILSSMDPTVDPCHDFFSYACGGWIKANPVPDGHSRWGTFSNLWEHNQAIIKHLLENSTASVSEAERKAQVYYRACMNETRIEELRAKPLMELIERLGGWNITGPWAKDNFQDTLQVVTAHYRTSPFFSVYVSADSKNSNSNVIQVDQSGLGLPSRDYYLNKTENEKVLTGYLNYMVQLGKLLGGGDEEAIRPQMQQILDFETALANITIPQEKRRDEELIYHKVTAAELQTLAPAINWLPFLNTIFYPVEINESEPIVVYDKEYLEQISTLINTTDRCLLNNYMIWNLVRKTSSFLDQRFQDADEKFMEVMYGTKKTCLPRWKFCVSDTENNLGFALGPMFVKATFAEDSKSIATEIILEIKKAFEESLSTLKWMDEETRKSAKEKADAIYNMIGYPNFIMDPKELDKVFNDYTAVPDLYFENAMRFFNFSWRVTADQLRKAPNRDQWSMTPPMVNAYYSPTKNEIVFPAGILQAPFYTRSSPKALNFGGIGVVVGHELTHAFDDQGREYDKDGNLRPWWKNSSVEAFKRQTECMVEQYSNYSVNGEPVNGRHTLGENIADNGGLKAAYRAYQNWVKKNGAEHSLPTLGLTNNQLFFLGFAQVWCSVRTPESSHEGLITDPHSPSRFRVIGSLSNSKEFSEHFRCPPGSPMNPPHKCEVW
T5 sequence (P37231 whole entry): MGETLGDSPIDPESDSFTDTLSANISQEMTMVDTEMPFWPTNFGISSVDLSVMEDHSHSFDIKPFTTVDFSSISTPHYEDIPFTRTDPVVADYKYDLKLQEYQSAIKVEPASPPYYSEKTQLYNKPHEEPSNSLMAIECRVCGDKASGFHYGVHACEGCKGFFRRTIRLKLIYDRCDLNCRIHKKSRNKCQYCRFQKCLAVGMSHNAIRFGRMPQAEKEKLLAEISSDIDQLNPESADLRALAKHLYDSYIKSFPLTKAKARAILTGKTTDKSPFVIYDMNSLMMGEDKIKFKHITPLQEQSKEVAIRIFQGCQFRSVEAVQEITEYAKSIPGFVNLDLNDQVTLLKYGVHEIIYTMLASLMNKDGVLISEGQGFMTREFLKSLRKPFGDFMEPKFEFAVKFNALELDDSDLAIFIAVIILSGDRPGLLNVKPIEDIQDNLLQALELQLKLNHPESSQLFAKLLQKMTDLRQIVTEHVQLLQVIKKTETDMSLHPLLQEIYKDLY
T8 sequence (P08588 whole entry): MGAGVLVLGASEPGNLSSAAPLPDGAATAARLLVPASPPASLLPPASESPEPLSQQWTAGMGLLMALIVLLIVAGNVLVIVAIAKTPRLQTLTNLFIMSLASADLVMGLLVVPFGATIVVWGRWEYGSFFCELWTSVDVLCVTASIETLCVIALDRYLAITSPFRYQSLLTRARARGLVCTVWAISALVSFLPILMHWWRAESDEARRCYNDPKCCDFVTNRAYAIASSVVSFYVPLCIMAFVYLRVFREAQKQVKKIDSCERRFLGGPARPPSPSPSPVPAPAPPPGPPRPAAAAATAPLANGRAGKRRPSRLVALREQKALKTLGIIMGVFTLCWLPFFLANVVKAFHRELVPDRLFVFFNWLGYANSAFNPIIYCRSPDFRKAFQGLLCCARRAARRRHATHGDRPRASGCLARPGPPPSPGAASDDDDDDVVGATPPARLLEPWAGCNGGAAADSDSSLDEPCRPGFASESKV
T2 sequence (P30542 whole entry): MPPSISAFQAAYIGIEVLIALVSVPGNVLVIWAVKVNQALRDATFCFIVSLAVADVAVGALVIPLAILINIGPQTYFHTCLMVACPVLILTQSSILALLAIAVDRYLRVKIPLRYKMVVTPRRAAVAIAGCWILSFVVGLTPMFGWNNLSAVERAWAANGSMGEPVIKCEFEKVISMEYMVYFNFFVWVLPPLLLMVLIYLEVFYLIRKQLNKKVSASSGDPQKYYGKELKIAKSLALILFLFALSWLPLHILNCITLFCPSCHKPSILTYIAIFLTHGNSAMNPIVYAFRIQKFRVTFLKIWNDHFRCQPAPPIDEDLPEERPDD
Chain of Glycine receptor (strychnine insensitive) (P35439 394-800): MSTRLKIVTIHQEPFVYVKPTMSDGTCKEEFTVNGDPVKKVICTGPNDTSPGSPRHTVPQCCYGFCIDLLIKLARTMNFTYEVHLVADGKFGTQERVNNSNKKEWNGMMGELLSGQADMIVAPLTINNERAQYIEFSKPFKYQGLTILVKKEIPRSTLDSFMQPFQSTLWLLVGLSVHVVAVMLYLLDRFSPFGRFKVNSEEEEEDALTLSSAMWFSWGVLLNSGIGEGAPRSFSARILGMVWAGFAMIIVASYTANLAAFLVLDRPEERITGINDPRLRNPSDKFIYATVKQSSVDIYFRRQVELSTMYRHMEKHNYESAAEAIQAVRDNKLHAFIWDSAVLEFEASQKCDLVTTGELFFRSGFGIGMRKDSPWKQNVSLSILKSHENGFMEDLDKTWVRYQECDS

As usually defined, the AUC(0-inf) is the area under the concentration-time curve extrapolated to infinity. Low readings indicate low exposure, high ones high exposure. In general, Cmax refers to the maximum level reached in the sampled fluid or tissue. What is called Tmax is the time at which the peak concentration occurs. Broadly, the half-life is the time needed for the level to fall by half in the phase considered. The low end stands for fast loss, the high end for slow loss. For `O=C(OCc1ccc(OC(F)(F)F)cc1)N1C[C@@H]2CN(C(=O)c3ccc4[nH]nnc4c3)C[C@H]2C1` [Compound 13, (3aS,6aS)-5-(1H-Benzotriazole-5-carbonyl)-hexahydro-pyrrolo[3,4-c]pyrrole-2-carboxylic acid 4-trifluoromethoxy-benzyl ester], in [1] (setting [12]), the AUC(0-inf) came out at 260 µg·h/mL, the Cmax is 2980 ng/mL, the Tmax came to 17 h and the half-life is 13 h. In data set [1] (plasma, iv bolus, 2 mg/kg), this molecule gave an AUC(0-inf) of 21 µg·h/mL and a half-life of 2.6 h. Also, the clearance in data set [1] (plasma, iv bolus, 2 mg/kg, read-out: CLp) is 1.6 mL/min/kg. Further, the Vd in data set [1] (plasma, iv bolus, 2 mg/kg, read-out: Vdss) came to 0.3 L/kg. In addition, in data set [1] (plasma, oral gavage, 10 mg/kg), the AUC(0-inf) was 130 µg·h/mL, the Cmax came to 17700 ng/mL, the Tmax was determined as 0.75 h and the half-life is 4.6 h. Also, in data set [1] (food admix (FA), 20 mg/kg per day), the “Oral F” value is given as 80%. Also, the “Oral F” value in data set [1] (oral gavage, 10 mg/kg) worked out at 80%. Further, in data set [2], the “Acetylcholinesterase (h) [% inhib]” value is reported as -23 % inhib. Further, the “Adenosine A1 respetor (h) [% inhib]” value in data set [3] worked out at 1 % inhib. Further, in [4], the “ECE-1 (h) [% inhib]” value is listed as 16 % inhib. In addition, the “Glycine receptor (strychnine insensitive) (r) [% inhib]” value in data set [5] amounted to 17 % inhib. In data set [6], the “HDAC3 (h) [% inhib]” value was 1 % inhib. Besides, in [7], the “PPARγ (h), agonist mode [% pos ctrl]” value is on record as 0 % pos ctrl. Besides, in data set [8], the “Serotonin transporter (h) [% inhib]” value is given as 28 % inhib. Besides, the “Alpha1A-adrenoreceptor (h) [% inhib]” value in [9] is 6 % inhib. Besides, the “Beta1-adrenoreceptor (h) [% inhib]” value in data set [10] is given as 2 % inhib. Also, in data set [11], the “Nicotinic receptor (muscle) (h) [% inhib]” value was determined as 3 % inhib.
